# Reference: patent US9695155B2, “Herbicidal substituted pyrimidinyloxy benzene compounds” (E. I. DU PONT DE NEMOURS AND COMPANY, priority 2013, dated 2017)
# Legend:
# [1] = tested on: Italian ryegrass; assay: Test A postemergence; type: in vivo, Lolium multiflorum
# Outline: (§1)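 Pre- and postemergence greenhouse screen. Soil: loam + sand. Spray carrier: solvent mixture, non-phytotoxic, with surfactant. Post timing at 1–2 leaves, height 2–10 cm. Readout: visual injury on a 0–100 scale roughly 10 days after application, untreated plants as reference.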
# [2] = tested on: kochia; assay: Test A preemergence; type: in vivo, Kochia scoparia
# Outline: as §1
# [3] = tested on: barnyardgrass; assay: Test A postemergence; type: in vivo, Echinochloa crus-galli; details: for Plant response rating, Barnyardgrass: 0 to 100 scale, 0 no effect, 100 complete control
# Outline: as §1
# [4] = tested on: sedge, umbrella; assay: Test B flooded paddy test; type: in vivo, Cyperus difformis; details: Flood, 250 g ai/ha; 0 to 100 scale where 0 is no effect and 100 is complete control
# Outline: (§2)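 2-leaf stage plants; pots flooded to 3 cm, compound added to paddy water, depth maintained. Greenhouse 13–15 d. Visual rating vs untreated controls, 0 (no effect) to 100 (complete control); dash = no result.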
# [5] = tested on: ragweed; assay: Test A postemergence; type: in vivo, Ambrosia elatior
# Outline: as §1
# [6] = tested on: barnyardgrass; assay: Test B flooded paddy test; type: in vivo, Echinochloa crus-galli; details: Flood, 250 g ai/ha; 0 to 100 scale where 0 is no effect and 100 is complete control
# Outline: as §2
# [7] = tested on: corn; assay: Test A postemergence; type: in vivo, Zea mays; details: for Plant response rating, Corn: 0 to 100 scale, 0 no effect, 100 complete control
# Outline: as §1
# [8] = tested on: ragweed; assay: Test A preemergence; type: in vivo, Ambrosia elatior
# Outline: as §1
# [9] = tested on: blackgrass; assay: Test A postemergence; type: in vivo, Alopecurus myosuroides
# Outline: as §1
# [10] = tested on: wheat; assay: Test A postemergence; type: in vivo, Triticum aestivum
# Outline: as §1
# [11] = tested on: giant foxtail; assay: Test A preemergence; type: in vivo, Setaria faberii
# Outline: as §1
# [12] = tested on: Heteranthera limosa; assay: Test B flooded paddy test; type: in vivo; details: Flood, 250 g ai/ha; 0 to 100 scale where 0 is no effect and 100 is complete control
# Outline: as §2
# [13] = tested on: pigweed; assay: Test A preemergence; type: in vivo, Amaranthus retroflexus
# Outline: as §1
# [14] = tested on: kochia; assay: Test A postemergence; type: in vivo, Kochia scoparia
# Outline: as §1
# [15] = tested on: rice; assay: Test B flooded paddy test; type: in vivo, Oryza sativa; details: Flood, 250 g ai/ha; 0 to 100 scale where 0 is no effect and 100 is complete control
# Outline: as §2
# [16] = tested on: pigweed; assay: Test A postemergence; type: in vivo, Amaranthus retroflexus; details: for Plant response rating, Pigweed: 0 to 100 scale, 0 no effect, 100 complete control
# Outline: as §1
# [17] = tested on: galium; assay: Test A postemergence; type: in vivo, Galium aparine
# Outline: as §1
# [18] = tested on: barnyardgrass; assay: Test A preemergence; type: in vivo, Echinochloa crus-galli
# Outline: as §1
# [19] = tested on: giant foxtail; assay: Test A postemergence; type: in vivo, Setaria faberii; details: for Plant response rating, Foxtail, Giant: 0 to 100 scale, 0 no effect, 100 complete control
# Outline: as §1
# [20] = tested on: Italian ryegrass; assay: Test A preemergence; type: in vivo, Lolium multiflorum
# Outline: as §1
# [21] = 125 g ai/ha, 0 to 100 scale where 0 is no effect and 100 is complete control
# [22] = 500 g ai/ha, 0 to 100 scale where 0 is no effect and 100 is complete control
# [23] = 31 g ai/ha, 0 to 100 scale, 0 no effect, 100 complete control
# [24] = 125 g ai/ha, 0 to 100 scale, 0 no effect, 100 complete control
# [25] = 31 g ai/ha, 0 to 100 scale where 0 is no effect and 100 is complete control, visual, approximately 10 days
smiles,measurement,setting,value
"N#Cc1cccc(Oc2ncc(Cl)cn2)c1-n1cc(SC(F)(F)F)cn1 [Compound 143, 3-[(5-chloro-2-pyrimidinyl)oxy]-2-[4-(trifluoromethylthio)-1H-pyrazol-1-yl]-benzonitrile]","Ryegrass, Italian plant response rating",[1]; [21],0
same,"Plant response rating, Ryegrass, Italian",[1]; [22],90
same,"Plant response rating, Kochia",[2]; [21],50
same,Kochia plant response rating,[2]; [22],100
same,Barnyardgrass plant response rating,[3]; [21],0
same,pest or weed control at 500 g/ha,"[3]; Echinochloa crus-galli, post-emergence, 240 h, 500 g ai/ha, 0 to 100 scale where 0 is no effect and 100 is complete control, read-out: Plant response rating, Barnyardgrass",80%
same,"Plant response rating, Sedge, Umbrella",[4],0
same,Ragweed plant response rating,[5]; [21],0
same,"Plant response rating, Ragweed",[5]; [22],100
same,"Plant response rating, Barnyardgrass",[6],0
same,Corn plant response rating,[7]; [21],30
same,"Corn plant response rating (crop injury, 0 = no effect, 100 = complete kill) at 500 g/ha","[7]; Zea mays, post-emergence, 240 h, 500 g ai/ha, 0 to 100 scale where 0 is no effect and 100 is complete control",40%
same,"Plant response rating, Ragweed",[8]; [21],0
same,Ragweed plant response rating,[8]; [22],20
same,Blackgrass plant response rating,[9]; [21],0
same,"Plant response rating, Blackgrass",[9]; [22],90
same,Wheat plant response rating,[10]; [21],0
same,"Plant response rating, Wheat",[10]; [22],30
same,"Plant response rating, Foxtail, Giant",[11]; [21],80
same,pest or weed control at 500 g/ha,"[11]; Setaria faberi, pre-emergence, 240 h, 500 g ai/ha, 0 to 100 scale where 0 is no effect and 100 is complete control, read-out: Foxtail, Giant plant response rating",100%
same,"Plant response rating, Ducksalad",[12],40
same,"Plant response rating, Pigweed",[13]; [21],90
same,pest or weed control at 500 g/ha,"[13]; Amaranthus retroflexus, pre-emergence, 240 h, 500 g ai/ha, 0 to 100 scale where 0 is no effect and 100 is complete control, read-out: Pigweed plant response rating",100%
same,Kochia plant response rating,[14]; [21],30
same,"Plant response rating, Kochia",[14]; [22],90
same,"Plant response rating, Rice",[15],0
same,Pigweed plant response rating,[16]; [21],70
same,pest or weed control at 500 g/ha,"[16]; Amaranthus retroflexus, post-emergence, 500 g ai/ha, 0 to 100 scale where 0 is no effect and 100 is complete control, read-out: Plant response rating, Pigweed",100%
same,Galium plant response rating,[17]; [21],30
same,"Plant response rating, Galium",[17]; [22],100
same,"Plant response rating, Barnyardgrass",[18]; [21],30
same,pest or weed control at 500 g/ha,"[18]; Echinochloa crus-galli, pre-emergence, 240 h, 500 g ai/ha, 0 to 100 scale where 0 is no effect and 100 is complete control, read-out: Barnyardgrass plant response rating",100%
same,"Foxtail, Giant plant response rating",[19]; [21],0
same,pest or weed control at 500 g/ha,"[19]; Setaria faberi, post-emergence, 240 h, 500 g ai/ha, 0 to 100 scale where 0 is no effect and 100 is complete control, read-out: Plant response rating, Foxtail, Giant",100%
same,"Plant response rating, Ryegrass, Italian",[20]; [21],0
same,"Ryegrass, Italian plant response rating",[20]; [22],20
FCc1cccc(Oc2ncc(Br)cn2)c1-n1cc(I)cn1 [Compound 244],"Plant response rating, Ryegrass, Italian",[1]; [23],0
same,"Plant response rating, Ryegrass, Italian",[1]; [24],0
same,"Plant response rating, Kochia",[2]; [25],0
same,Kochia plant response rating (0 to 100 scale),[2]; 125 g ai/ha,40
same,"Plant response rating, Barnyardgrass",[3]; 31 g ai/ha,0
same,"Plant response rating, Barnyardgrass",[3]; 125 g ai/ha,10
same,"Plant response rating, Sedge, Umbrella",[4],0
same,"Plant response rating, Ragweed",[5]; [23],0
same,"Plant response rating, Ragweed",[5]; [24],0
same,"Plant response rating, Barnyardgrass",[6],0
same,"Plant response rating, Corn",[7]; 31 g ai/ha,0
same,"Plant response rating, Corn",[7]; 125 g ai/ha,20
same,"Plant response rating, Ragweed",[8]; [25],0
same,Ragweed plant response rating (0 to 100 scale),[8]; 125 g ai/ha,0
same,"Plant response rating, Blackgrass",[9]; [23],0
same,"Plant response rating, Blackgrass",[9]; [24],30
same,"Plant response rating, Wheat",[10]; [23],0
same,"Plant response rating, Wheat",[10]; [24],20
same,"Plant response rating, Foxtail, Giant",[11]; [25],0
same,"Foxtail, Giant plant response rating (0 to 100 scale)",[11]; 125 g ai/ha,80
same,"Plant response rating, Ducksalad",[12],40
same,"Plant response rating, Pigweed",[13]; [25],0
same,Pigweed plant response rating (0 to 100 scale),[13]; 125 g ai/ha,100
same,"Plant response rating, Kochia",[14]; [23],20
same,"Plant response rating, Kochia",[14]; [24],80
same,"Plant response rating, Rice",[15],0
same,"Plant response rating, Pigweed",[16]; 31 g ai/ha,20
same,"Plant response rating, Pigweed",[16]; 125 g ai/ha,100
same,"Plant response rating, Galium",[17]; [23],70
same,"Plant response rating, Galium",[17]; [24],100
same,"Plant response rating, Barnyardgrass",[18]; [25],0
same,"Barnyardgrass plant response rating (0 to 100 scale, 0 is no effect, 100 is complete control)",[18]; 125 g ai/ha,20
same,"Plant response rating, Foxtail, Giant",[19]; 31 g ai/ha,0
same,"Plant response rating, Foxtail, Giant",[19]; 125 g ai/ha,10
same,"Plant response rating, Ryegrass, Italian",[20]; [25],0
same,"Ryegrass, Italian plant response rating (0 to 100 scale)",[20]; 125 g ai/ha,0
